Results on two molecules are retold here after patent publication US20240245705A1, “ORALLY ADMINISTERED COMBINATIONS OF AMOXICILLIN AND AVIBACTAM DERIVATIVES FOR TREATING MYCOBACTERIAL INFECTIONS” (Arixa Pharmaceuticals, Inc., priority 2019, published 2024).

Series [1] is described as follows: Avibactam oral bioavailability in humans. The class given is in vivo. The conditions noted are these: human patients, oral avibactam derivative. The text has this:
Avibactam derivatives, when orally administered, provide an enhanced oral bioavailability of the β-lactamase inhibitor compared to the oral bioavailability of the parent β-lactamase inhibitor. […] The oral bioavailability of avibactam in a human is about 7%.

The nature of series [2]: Single ascending dose phase 1 study: pharmacokinetics of avibactam after oral avibactam derivative (3) in healthy human volunteers. It is filed as in vivo. The conditions noted are these: following oral administration of avibactam derivative (3). On the procedure: The pharmacokinetics of avibactam provided as an orally administered avibactam derivative was determined on healthy human volunteers.
A randomized, double-blind, placebo-controlled single ascending dose phase 1 study was undertaken with healthy male and female adults. Three cohorts, each comprising 10 patients received a single oral dose of 300 mg, 900 mg, or 1,350 mg avibactam derivative (3) (ethyl 3-(((((1R,2S,5R)-2-carbamoyl-7-oxo-1,6-diazabicyclo[3.2.1]octan-6-yl)oxy)sulfonyl)oxy)-2,2-dimethylpropanoate) under fed conditions as a suspension of 10 mg/mL (n=8) or placebo (n−2).
Plasma and urine PK samples were collected prior to dosing and at frequent intervals after dosing.

For series [3] the following is noted: human, avibactam itself given orally; cited from earlier work.

Each structure is given as a SMILES string. Where a name gives a salt, the structure may show the parent alone.

As to `CCOC(=O)C(C)(C)COS(=O)(=O)ON1C(=O)N2C[C@H]1CC[C@H]2C(N)=O` [avibactam derivative (3), ethyl 3-(((((1R,2S,5R)-2-carbamoyl-7-oxo-1,6-diazabicyclo[3.2.1]octan-6-yl)oxy)sulfonyl)oxy)-2,2-dimethylpropanoate], the avibactam oral bioavailability entry in series [1] is listed as “greater than 50 % F”. Moreover, the “clearance of avibactam in the systemic compartment” value in series [2] is on record as “rapid clearance”.
`NC(=O)[C@@H]1CC[C@@H]2CN1C(=O)N2OS(=O)(=O)O` [avibactam, [2S,5R]-2-carbamoyl-7-oxo-1,6-diazabicyclo[3.2.1]octan-6-yl hydrogen sulfate]: the “oral bioavailability of avibactam” value in series [3] is recorded as “about 7%”.
